From US7141585B2 (dated 2006)

CCOC(=O)c1c(Cc2cc(Cl)cc(Cl)c2)c(C)nn1CCO
melting point: 105.8 to 107.5 °C
